Where two headings read alike, the source gives them in different places.
Experiments:
Gastric Acid Output = assay: Gastric antisecretory activity in the Gastric Fistula Rat (Table 2 title: Two-Hour Pylorus Ligated Rat); format: in vivo, Long Evans rats; conditions: numbers in parentheses are the 95% confidence limits
Procedure: Male Long Evans rats weighing about 240-260 grams at the time of cannula implantation are used. The design and implantation of the stainless steel cannula into the anterior wall of the fore-stomach are carried out essentially as described by Pare et al. [Laboratory Animal Science, 27, 244 (1977)]. The fistula components are designed and the operative procedure is carried out exactly as described in the above reference. Post operatively the animals are individually housed in solid bottom cages with sawdust and are allowed food and water ad libitum throughout the entire recovery period. Animals are not used for test purposes for at least 15 days after the operative procedure.
The animals are fasted but allowed water ad libitum for 20 hours before the testing procedure is to begin. Immediately prior to collection, the cannula is opened and the stomach washed gently with 30-40 mL of warm saline or distilled water to remove any residual contents. The catheter is then screwed into the cannula in place of the plugging screw and the rat is placed in a clear plastic rectangular cage measuring 40 cm long, 15 cm wide and 13 cm high. The bottom of the cage has a slit approximately 1.5 cm wide and 25 cm long running down the center to accommodate the catheter which hangs through it. In this way the rat is not restricted and can move freely about the cage during collection periods. The remainder of the assay is carried out as described by Ridley et al. [Research Comm. Chem. Path. Pharm., 17, 365 (1977)].
Gastric secretions collected during the first hour after washing the stomach are discarded as they may be contaminated. For oral evaluation, the catheter is then removed from the cannula and replaced with the plugging screw. Water (2 mL/kg) is administered orally via gastric intubation and the animal is returned to the cage for 45 minutes. After this time the plugging screw is removed and replaced with a catheter to which a small plastic vial has been attached to collect the gastric secretions. A two hour sample is collected (this represents the control secretion), the catheter removed and replaced with the plugging screw. The test drug is now administered orally in a volume of 2 mL/kg via gastric intubation. Forty-five minutes later the plugging screw is again removed, replaced with the catheter attached to a small plastic vial and another 2 hour sample is collected. The secretions in the second sample are compared to those of the control sample in order to determine the effects of the test drug.
When test compounds are to be evaluated parenterally, the animal is injected ip or sc with the test compound vehicle in a volume of 2 mL/kg immediately after discarding the initial 60 minute collection. A two hour sample is collected (control secretion) and the animals are injected either ip or sc with the test compound in a volume of 2 mL/kg. An additional two hour sample is collected and its secretions are compared to those of the control period to determing drug effects.
The samples are centrifuged in a graduated tube for volume determination. Titratable acidity is measured by titrating a one mL sample to pH 7.0 with 0.02N NaOH, using an Autoburet and an electrometric pH meter (Radiometer). Titratable acid output is calculated in microequivalents by multiplying the volume in milliliters by the acid concentration in milliequivalents per liter.
(§1) Results are expressed as percent inhibition relative to control readings. Dose response curves are constructed and ED values are calculated by regression analyses. At least three rats are used at each dosage level and a minimum of three dosage levels are utilized for determination of a dose response curve.

acid output = assay: Gastric antisecretory activity in the Heidenhain Pouch Dog; format: in vivo, dogs; conditions: for Potency Ratio (cimetidine = 1.0): oral
Procedure: Prior to surgery, hematology and blood chemistry profiles are obtained and an assessment made as to the general health of selected female dogs. Dogs are vaccinated with Tissue Vax 5 (DHLP - Pitman-Moore) and housed in general animal quarters for four weeks' observation so incipient diseases may become apparent. Dogs are fasted with water ad libitum 24 hours prior to surgery.
Anesthesia is induced with Sodium Pentothal (Abbott) 25-30 mg/kg iv. Subsequent anesthesia is maintained with methoxy- flurane (Pitman-Moore). A mid-line linea alba incision from xiphoid to umbilicus provides good exposure and ease of closure. The stomach is pulled up into the operative field, the greater curvature stretched out at multiple points and clamps placed along the selected line of incision. The pouch is made from the corpus of the stomach so that true parietal cell juice is obtained. About 30% of the corpus volume is resected. The cannula is made of light-weight, biologically-inert material such as nylon or Delrin with dimensions and attachments after DeVito and Harkins [J. Appl. Physiol., 14, 138 (1959)]. Post operatively, dogs are medicated with antibiotics and an analgesic. They are allowed 2-3 months for recovery. Experiments are carried out in the following way: Dogs are fasted overnight (~18 hours) with water ad libitum prior to each experiment. The dogs are placed in a sling and a saphenous vein cannulated for drug administration. Histamine as the base (100 ug/kg/hr) and chlorpheniramine maleate (0.25 mg/kg/hr) are infused continuously (in a volume of 6 mL/hr) with a Harvard infusion pump.
Ninety minutes' infusion are allowed for the dogs to reach a steady state of acid output. At this time the drug or normal saline (control) is administered concomitantly with the secretagogue in a volume of 0.5 mL/kg over a 30 second period. When oral studies are to be carried out, the drug is administered via gastric gavage in a volume of 5 mL/kg. Infusion of the secretagogue is continued and 15 minute samples of.the gastric juice are taken for 4.5 hours. Each sample is measured to the nearest 0.5 mL and titratable acidity is determined by titrating a 1 mL sample to pH 7.0 with 0.2N NaOH, using an Autoburet and an electrometric pH meter (Radiometer). Titratable acid output is calculated in microequivalents by multiplying the volume in milliliters by the acid concentration in milliequivalents per liter.
as §1, with “and ED50” for “and ED”, “analyses. From 3 to 5 dogs” for “analyses. At least three rats”, “each dose” for “each dosage”

ulcer formation = conditions: two or more days of pretreatment, single agent; cited from earlier work
pepsin = conditions: gastric ulcer; cited from earlier work
gastric secretion [1] = assay: Inhibition of gastric secretion by the oral route, dog; format: in vivo
gastric secretion [2] = assay: Inhibition of gastric secretion by the oral route, rat; format: in vivo
gastric erosions = assay: HCl-induced gastric erosions in rats, pretreatment with compound alone or with pepstatin; format: in vivo, Long Evans rats; conditions: probit analysis
Procedure: Adult male, Long Evans rats weighing 280-300 g (Blue Spruce Farms, Alton, New York) were used. The animals were individually caged and food and water were removed 24 and 18 hours, respectively, prior to testing. On the following day, the test compound was administered orally to the animals 30 minutes before 1.0 mL of 0.75N HC1 was instilled into the stomach by gavage. Animals treated with the combination of the test compound and pepstatin received the test compound 30 minutes before, and a fixed amount of pepstatin (20 mg/kg po) 10 minutes before, the hydrochloric acid was administered. […] One hour after receiving the HC1 solution, the animals were sacrificed with an intraperitoneal injection of 0.2 mL of T-6r-, a euthanasia solution (National Laboratories Corp.).
The stomachs were photographed with a Polaroid" Close Up camera (Polaroid Corporation) and scoring was determined from the photographs. For scoring purposes, only those erosions with a minimum length of 1 mm were considered. The severity of gastric ulceration was defined for each animal as the sum of the maximum continuous lengths (in mm) of the erosions satisfying the above criteria. […]
Data were analyzed using the t-test for unpaired data and ED50 values were calculated from the dose response data using probit analysis [Finney, Probit Analysis, 3rd ed., University Press, Cambridge, England (1971)]. […]

gastric acid secretion = conditions: normal volunteers and patients with duodenal ulcer; cited from earlier work
[3] = Rattus norvegicus, sc, Route of Administration s.c., read-out: ED50
[4] = Rattus norvegicus, ip, Route of Administration i.p., read-out: ED50

Row | Molecule | ED50 (Gastric Acid Output; [3]) [µmol/kg] | Potency Ratio (cimetidine = 1.0) (acid output) | also measured
1 | CN(C)Cc1cccc(OCCCNc2n[s+]([O-])nc2N)c1 (centres unmarked) [Example 118, 3-Amino-4-[3-(3-dimethylaminomethylphenoxy)propylamino]-1,2,5-thiadiazole 1-oxide] | 0.066 | 10 | 
2 | CC1(C)[C@@H](OC(=O)CCC(=O)O)CC[C@]2(C)[C@H]3C(=O)C=C4[C@@H]5C[C@@](C)(C(=O)O)CC[C@]5(C)CC[C@@]4(C)[C@]3(C)CC[C@@H]12 [carbenoxolone] |  |  | ulcer formation (ulcer formation): significantly decreased ulcer formation
3 | NC1=NS(=O)(=O)N=C1NCCCOc1cccc(CN2CCCC2)c1 [146 a] |  | ~20 | ED50 (Gastric Acid Output; Route of Administration s.c.): 0.023 (0.0091-0.046) μmoles/kg
4 | sucralfate |  |  | benefit in patients with gastric ulcer (pepsin): none
5 | [O-][s+]1nc(NCCCOc2cccc(CN3CCCCC3)c2)c(NCc2cccnc2)n1 (centres unmarked) [Example 149, 3-[(3-Pyridyl)methylamino]-4-[3-(3-piperidinomethylphenoxy)-proavlamino]-1,2,5-thiadiazole1-oxide] | ~0.08 | 10 | 
6 | CCNC1=NS(=O)(=O)N=C1NCCSCc1ccc(CN(C)C)o1 [Example 12, 3-{2-[(5-Dimethylaminomethyl-2-furyl)methylthio]ethyl-amino]-4-ethylamino-1,2,5-thiadiazole 1,1-dioxide] |  | 10 | ED50 (Gastric Acid Output; [4]): 0.28 µmol/kg
7 | NC(N)=Nc1nc(CSCCNC2=NS(=O)(=O)N=C2N)cs1 [Example 35, 3-Amino-4-{2-[(2-guanidinothiazol-4-yli)methylthio]ethyl-amino}-1,2,5-thiadiazole 1,1-dioxide] | 0.08 | 20 | 
8 | CNC1=NS(=O)(=O)N=C1NCCSCc1csc(NC(=N)N)n1 [Example 31, 3-{2-[(2-Guanidinothiazol-4-yl)methylthio)ethylamino}-4-methylamino-1,2,5-thiadiazole 1,1-dioxide] |  | 13 | ED50 (Gastric Acid Output; [4]): 0.41 µmol/kg
9 | CNC(=C[N+](=O)[O-])NCCSCc1ccc(CN(C)C)o1 [Ranitidine, ranitidine] |  |  | times as potent as cimetidine as an inhibitor of gastric secretion (gastric secretion [1]): ~6 times; times as potent as cimetidine as an inhibitor of gastric secretion (gastric secretion [2]): about 4 times; ED50 (gastric erosions; Rattus norvegicus, po, compound alone, orally 30 minutes before 1.0 mL of 0.75N HCl, read-out: ED50 (mg/kg) for Inhibition of Ulcer Formation Alone): 123 mg/kg; ED50 (mg/kg) for Inhibition of Ulcer Formation with Pepstatin (gastric erosions; compound orally 30 minutes before and pepstatin 20 mg/kg po 10 minutes before HCl): 104 mg/kg
10 | CNc1n[s+]([O-])nc1NCCSCc1ccc(CN(C)C)o1 (centres unmarked) [Example 18, 3-{2-[(5-Dimethylaminomethyl-2-furyl)methylthio]ethylamino}-4-methylamino-1,2,5-thiadiazole 1-oxide] | 0.38 | 18 | 
11 | CN(C)Cc1ccc(CSCCNC2=NS(=O)(=O)N=C2NCCSCc2ccc(CN(C)C)o2)o1 [11 B] |  | 11 | ED50 (Gastric Acid Output; Route of Administration i.p.): 0.69 (0.31-1.33) μmoles/kg
12 | CNC1=NS(=O)(=O)N=C1NCCSCc1ccc(CN(C)C)s1 [Example 65, 3-{2-[(5-Dimethylaminomethyl-2-thienyl)methylthio]ethyl-amino}-4-methylamino-1,2,5-thiadiazole 1,I-dioxide] | 0.07 | 10 | 
13 | CN/C(=N/CCSCc1nc[nH]c1C)NC#N [cimetidine] |  |  | basal and stimulated gastric acid secretion (gastric acid secretion): antagonize both basal and stimulated gastric acid secretion; ED50 (acid output; Canis lupus familiaris, po, read-out: oral ED50): ~3.3 µmol/kg; ulcer formation (ulcer formation): significantly decreased ulcer formation
14 | CN(C)Cc1ncc(CSCCNc2n[s+]([O-])nc2N)s1 (centres unmarked) [Example 123, 3-Amino-4-{2-[(2-dimethylaminomethylthiazol-5-yl)methylthio]-ethylamino}-1,2,5-thiadiazole 1-oxide] | > 10 |  | 
15 | CN(C)Cc1ccc(CSCCNC2=NS(=O)(=O)N=C2NC2CC2)o1 [Example 97, 3-Cyclopropylamino-4-{2-[(5-dimethylaminomethyl-2-furyl)-methylthio]ethylamino}-1,2,5-thiadiazole 1,1-dioxide] | ~3 |  | 

— patent publication EP0099121A2, “Pharmaceutical compositions” (Bristol-Myers Company, priority 1982, dated 1984)
